For data set [1] the following is noted: taken orally, maximum dose of 4 g/day; cited from earlier work.
Data set [2] has as its system osteoarthritis animal model induced by 1 mg MIA (Monosodium IodoAcetate) in synovium. As to the kind of experiment: In vivo anti-osteoarthritis efficacy test, X-ray of joint region. Further details: species or system rat (Sprague Dawley). Here is the method:
FIG. 4 is X-ray radiographs of osteoarthritis animal model (rat) induced by treating 1 mg MIA in synovium at 8 weeks after administering the osteoarthritis composition comprising hydrophilized sulfasalazine and hyaluronic acid according to the present invention of 0 to 8 mM. After inducing an osteoarthritis animal model by treating 1 mg MIA (Monosodium IodoAcetate) to synovium of 8 week-old rat (Sprague Dawley), after 1 week, mixtures prepared in Example 1 was administered by intraarticular injection.

The conditions of data set [3]: as component of synovial fluid; cited from earlier work.

Consider `O=C(O)c1cc(/N=N/c2ccc(S(=O)(=O)Nc3ccccn3)cc2)ccc1O` [sulfasalazine], for which the blood concentration in data set [1] was 12000 ng/mL. Also, the anti-osteoarthritis effect result in data set [2] (less than 2 mM (0.08 w/v %)) is “anti-osteoarthritis effect could not be shown”. For the same molecule, the osteoarthritis treatment effect result in data set [2] (low concentration, for example 1 mM) is given as “could not show an effective level of osteoarthritis treatment effect”.
As for hyaluronic acid, the half life entry in data set [3] is “more than 13 hours”.
